# Experiments:
# [1] = test system: APAE006 in the presence of 8 micrograms per milliliter of polymyxin B nonapeptide; assay type: cell-based, P. aeruginosa; details: in the presence of 8 micrograms per milliliter of polymyxin B nonapeptide
# How it was run: (§1)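 Two-fold drug dilutions in cation-adjusted MHB were inoculated to 3×10^5–7×10^5 CFU/mL and held at 35° C. for 18-24 hours (ambient air), following CLSI. APAE006 is an efflux-deficient P. aeruginosa.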
# [2] = test system: APAE006 (strain of P. aeruginosa in which all efflux pumps are inactivated); assay: microbe, parasite or virus in culture; assay type: cell-based; details: Pseudomonas aeruginosa, read-out: MIC APAE006, P. aeruginosa, all efflux pumps inactivated
# How it was run: as §1
# [3] = test system: ASAU001 (laboratory strain of S. aureus, ATCC29213); assay: MIC broth microdilution, ASAU001; assay type: cell-based; details: Staphylococcus aureus, ATCC29213, read-out: MIC ASAU001
# How it was run: (§2)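 Growth inhibition was scored by CLSI broth microdilution using cation-adjusted Mueller-Hinton broth and a final inoculum between 3×10^5 and 7×10^5 CFU/mL, incubated 18-24 hours at 35° C.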
# AECO001 HSA AGP = assay: MIC broth microdilution, AECO001 HSA AGP; assay type: cell-based, E. coli; details: Escherichia coli
# How it was run: as §2
# APAE001 (ATCC27853) = assay: MIC broth microdilution, APAE001; assay type: cell-based, P. aeruginosa; details: Pseudomonas aeruginosa, ATCC27853, read-out: MIC APAE001, APAE001 is ATCC27853
# How it was run: as §2
# AECO001 (ATCC25922) = assay: MIC broth microdilution, AECO001; assay type: cell-based, E. coli; details: Escherichia coli, ATCC25922, read-out: MIC AECO001
# How it was run: as §2
# [4] = test system: AABA1060 (clinical isolate of Acinetobacter baumannii); assay: MIC broth microdilution, AABA1060; assay type: cell-based; details: Acinetobacter baumannii, read-out: MIC AABA1060
# How it was run: as §2
# [5] = test system: AECO063 (ATCC25922 bearing an acrAB mutation); assay: microbe, parasite or virus in culture; assay type: cell-based, E. coli; details: Escherichia coli, ATCC25922, read-out: MIC AECO063
# How it was run: as §2
SMILES,MIC APAE006 + PMBN [1],MIC [2] [µg/mL],MIC [3] [µg/mL],MIC (AECO001 HSA AGP) [µg/mL],MIC (APAE001 (ATCC27853)) [µg/mL],MIC (AECO001 (ATCC25922)) [µg/mL],MIC [4] [µg/mL],MIC [5] [µg/mL]
C[C@@H](N)[C@H](NC(=O)c1ccc(C#CC#Cc2ccccn2)cc1)C(=O)NO [Example 88-4],A (MIC's of 2.0 μg/mL or less = A),< 2,> 64,16 to 64,< 2,2 to 16,16 to 64,< 2
C[C@@H](O)[C@H](NC(=O)c1ccc(C#CC#Cc2cncn2C)cc1)C(=O)NO [Example 88-9],A (MIC's of 2.0 μg/mL or less = A),< 2,16 to 64,2 to 16,2 to 16,< 2,16 to 64,< 2
Cn1cncc1C#CC#Cc1ccc(C(=O)N[C@H](C(=O)NO)C(C)(C)O)cc1 [Example 88-10],A (MIC's of 2.0 μg/mL or less = A),< 2,16 to 64,2 to 16,2 to 16,< 2,2 to 16,< 2
C[C@@H](N)[C@H](NC(=O)c1ccc(C#CC#CC2CC2)cc1)C(=O)NO [Example 91-2],A (MIC's of 2.0 μg/mL or less = A),< 2,2 to 16,2 to 16,< 2,< 2,< 2,< 2
C[C@@H](N)[C@H](NC(=O)c1ccc(C#CC#CC2CCCC2)cc1)C(=O)NO [Example 91-3],A (MIC's of 2.0 μg/mL or less = A),< 2,2 to 16,2 to 16,< 2,< 2,2 to 16,< 2
C[C@@H](N)[C@H](NC(=O)c1ccc(C#CC#CC2CCCCC2)cc1)C(=O)NO [Example 91-4],A (MIC's of 2.0 μg/mL or less = A),< 2,2 to 16,2 to 16,2 to 16,< 2,2 to 16,< 2
"C[C@@H](O)[C@H](NC(=O)c1ccc(C#C/C=C/c2ccc(CN3CCOCC3)cc2)cc1)C(=O)NO [Example 96-1, N-((1S,2R)-2-Hydroxy-1-hydroxycarbamoyl-propyl)-4-[(E)-4-(4-morpholin-4-ylmethyl-phenyl)-but-3-en-1-ynyl]-benzamide]",A (MIC's of 2.0 μg/mL or less = A),< 2,> 64,< 2,2 to 16,< 2,2 to 16,< 2
C[C@H](O)[C@H](NC(=O)c1ccc(C#C/C=C/c2ccc(CN3CCOCC3)cc2)cc1)C(=O)NO [Example 96-2],A (MIC's of 2.0 μg/mL or less = A),< 2,16 to 64,2 to 16,2 to 16,< 2,2 to 16,< 2
CC(C)[C@H](NC(=O)c1ccc(C#C/C=C/c2ccc(CN3CCOCC3)cc2)cc1)C(=O)NO [Example 96-3],A (MIC's of 2.0 μg/mL or less = A),< 2,16 to 64,2 to 16,2 to 16,< 2,2 to 16,< 2
C[C@@H](N)[C@H](NC(=O)c1ccc(C#C/C=C/c2ccc(CN3CCOCC3)cc2)cc1)C(=O)NO [Example 96-4],A (MIC's of 2.0 μg/mL or less = A),< 2,> 64,2 to 16,2 to 16,< 2,2 to 16,< 2
"CO[C@H](C)[C@H](NC(=O)c1ccc(C#C/C=C/c2ccc(CN3CCOCC3)cc2)cc1)C(=O)NO [Example 97-1, N-((1S,2R)-1-Hydroxycarbamoyl-2-methoxy-propyl)-4-[(E)-4-(4-morpholin-4-ylmethyl-phenyl)-but-3-en-1-ynyl]-benzamide]",A (MIC's of 2.0 μg/mL or less = A),< 2,16 to 64,< 2,2 to 16,< 2,2 to 16,< 2
"NC[C@H](NC(=O)c1ccc(C#C/C=C/c2ccc(CN3CCOCC3)cc2)cc1)C(=O)NO [Example 98-1, N—((S)-2-amino-1-hydroxycarbamoyl-ethyl)-4-[(E)-4-(4-morpholin-4-ylmethyl-phenyl)-but-3-en-1-ynyl]-benzamide]",A (MIC's of 2.0 μg/mL or less = A),< 2,16 to 64,< 2,< 2,< 2,16 to 64,< 2
"CN(C)CC(=O)NC[C@H](NC(=O)c1ccc(C#C/C=C/c2ccc(CN3CCOCC3)cc2)cc1)C(=O)NO [Example 98-2, N—[(S)-2-(2-dimethylamino-acetylamino)-1-hydroxycarbamoyl-ethyl]-4-[(E)-4-(4-morpholin-4-ylmethyl-phenyl)-but-3-en-1-ynyl]-benzamide]",A (MIC's of 2.0 μg/mL or less = A),< 2,16 to 64,2 to 16,2 to 16,< 2,16 to 64,< 2
"CC(=O)NC[C@H](NC(=O)c1ccc(C#C/C=C/c2ccc(CN3CCOCC3)cc2)cc1)C(=O)NO [Example 98-3, N—((S)-2-acetylamino-1-hydroxycarbamoyl-ethyl)-4-[(E)-4-(4-morpholin-4-ylmethyl-phenyl)-but-3-en-1-ynyl]-benzamide]",A (MIC's of 2.0 μg/mL or less = A),< 2,> 64,< 2,2 to 16,< 2,16 to 64,< 2
CNC[C@H](NC(=O)c1ccc(C#C/C=C/c2ccc(CN3CCOCC3)cc2)cc1)C(=O)NO [Example 99-1],A (MIC's of 2.0 μg/mL or less = A),< 2,16 to 64,2 to 16,2 to 16,< 2,16 to 64,< 2
"O=C(CNC1CC1)NC[C@H](NC(=O)c1ccc(C#C/C=C/c2ccc(CN3CCOCC3)cc2)cc1)C(=O)NO [Example 100-1, N—[(S)-2-(2-Cyclopropylamino-acetylamino)-1-hydroxycarbamoyl-ethyl]-4-[(E)-4-(4-morpholin-4-ylmethyl-phenyl)-but-3-en-1-ynyl]-benzamide]",A (MIC's of 2.0 μg/mL or less = A),< 2,16 to 64,2 to 16,2 to 16,< 2,16 to 64,< 2
"C[C@@H](O)[C@H](NC(=O)c1ccc(C#C/C=C/c2ccc(CO)cc2)cc1)C(=O)NO [Example 101-1, N-((1S,2R)-2-Hydroxy-1-hydroxycarbamoyl-propyl)-4-[(E)-4-(4-hydroxymethyl-phenyl)-but-3-en-1-ynyl]-benzamide]",A (MIC's of 2.0 μg/mL or less = A),< 2,16 to 64,2 to 16,2 to 16,< 2,16 to 64,< 2
NC[C@H](NC(=O)c1ccc(C#C/C=C/c2ccc(CO)cc2)cc1)C(=O)NO [Example 101-2],A (MIC's of 2.0 μg/mL or less = A),< 2,16 to 64,16 to 64,2 to 16,< 2,16 to 64,< 2

# From patent publication US9617256B2 (priority 2007, dated 2017)
